Test results published in PMC6054628.

Assays:
[1] = Head-to-tail native chemical ligation in two-module microfluidic flow: SEAon peptide amide rearranged to SEAE thioester (pH 1, TCEP, 60 min, 90 or 65 C), then MPAA (0.4 M)/Na2HPO4 (0.2 M) pH 7.3 cyclisation onto N-terminal Cys; conditions: 30-membered ring, water (phosphate buffer, MPAA, TCEP; decane segmented carrier; 6 M Gn.HCl for 4l-p), 0.6 mM, 37.0 °C, 0.067 h, 2 steps
[2] = Head-to-tail native chemical ligation in two-module microfluidic flow: SEAon peptide amide rearranged to SEAE thioester (pH 1, TCEP, 60 min, 90 or 65 C), then MPAA (0.4 M)/Na2HPO4 (0.2 M) pH 7.3 cyclisation onto N-terminal Cys, 4 min; conditions: 30-membered ring, water (phosphate buffer, MPAA, TCEP; decane segmented carrier), 0.6 mM, 37.0 °C, 0.067 h, 2 steps, scale: %
[3] = from CC[C@H](C)[C@H](NC(=O)[C@@H](N)CS)C(=O)N[C@@H](CC(C)C)C(=O)N[C@@H](CC(N)=O)C(=O)NCC(=O)N1CCC[C@H]1C(=O)N[C@H](C(=O)N[C@@H](Cc1c[nH]cn1)C(=O)NCC(=O)N[C@@H](CC(C)C)C(=O)SCCNCCS)C(C)C
[4] = from CC[C@H](C)[C@H](NC(=O)[C@@H](N)CS)C(=O)N[C@@H](CC(C)C)C(=O)N[C@@H](CC(N)=O)C(=O)NCC(=O)N1CCC[C@H]1C(=O)N[C@H](C(=O)N[C@@H](Cc1c[nH]cn1)C(=O)NCC(=O)N[C@H](C(=O)SCCNCCS)C(C)C)C(C)C

## CC[C@H](C)[C@@H]1NC(=O)[C@H](CS)NC(=O)[C@H](CC(C)C)NC(=O)CNC(=O)[C@H](Cc2c[nH]cn2)NC(=O)[C@H](C(C)C)NC(=O)[C@@H]2CCCN2C(=O)CNC(=O)[C@H](CC(N)=O)NC(=O)[C@H](CC(C)C)NC1=O [H-CILNGPVHGL-SEAon (via SEAE thioester)]
[1]; [3]
  ring closure, yield over several steps: 80%
[2]; [3]
  ring closure, conversion by HPLC: 85

## CC[C@H](C)[C@@H]1NC(=O)[C@H](CS)NC(=O)[C@H](C(C)C)NC(=O)CNC(=O)[C@H](Cc2c[nH]cn2)NC(=O)[C@H](C(C)C)NC(=O)[C@@H]2CCCN2C(=O)CNC(=O)[C@H](CC(N)=O)NC(=O)[C@H](CC(C)C)NC1=O [H-CILNGPVHGV-SEAon (via SEAE thioester)]
[1]; [4]
  ring closure, yield over several steps: 66%
[2]; [4]
  ring closure, conversion by HPLC: 63
